{
  "source": "patent US9896659B2",
  "about": "“Methods, kits, and compositions for stem cell self-renewal” (STOWERS INSTITUTE FOR MEDICAL RESEARCH, priority 2011, dated 2018)",
  "key": {"[1]": {"system": "NSG recipients", "assay": "Repopulation of NSG recipients by cultured human UCB cells", "assay_type": "in vivo", "conditions": "STL media + 15 nM Decitabine, brief exposure; 12 weeks post-secondary transplant", "protocol": "600 HSCs (lineage negative, CD34^+, CD38^− cells) were sorted from human UCB and transplanted into sub-lethally irradiated (3.25 Gy) NSG recipients or cultured for 2 weeks in STL media prior to transplantation. MNCs containing 600 HSCs were also cultured equivalently and transplanted. The uncultured MNC group is not shown due to morbidity of transplant recipients.\nMNCs were isolated from human UCB and cultured in STL media or STL media with the DNA methyltransferase inhibitor (DNMTi), Decitabine, added at the concentration of 15 nM. DNMTi was prepared fresh in DMSO and added 12 hours after the start of the culture. Media containing Decitabine was replaced with freshly prepared media every 24 hours two more times. 72 hours after adding Decitabine initially, Decitabine was removed from the culture.\nFor the transplant experiments, MNCs isolated from human UCB were cultured in media activating the PI3K/Akt pathway (ST media), ST media with StemRegenin1 (SR1), media activating both the PI3K/Akt and Wnt/β-catenin pathways (STL media), or STL media+DNMTi for 14 days. The cultured progeny of 2×10^5 MNCs per recipient were transplanted into sub-lethally irradiated (3.25 Gy) NSG recipients. […] 12 weeks post-secondary transplant, human donor cells repopulation was determined (FIG. 36B)."}, "[2]": {"system": "Lin^−, CD34^+, CD38^− cells", "assay": "Long-term ex vivo culture of human umbilical cord blood MNCs, Lin^− CD34^+ CD38^− cells by flow cytometry", "assay_type": "cell-based", "conditions": "6 weeks culture in STL media; 500 nM 5-Aza-2′-deoxycytidine or 1 μM SR1; relative to STL base media", "protocol": "Cells were cultured in STL media, which consists of the following: StemSpan SFEM media (Stem Cell Technologies, Vancouver, Canada) supplemented with 10 μg/ml heparin (Sigma, St. Louis, Mo.), 0.5× Penicillin/Streptomycin (Sigma, St. Louis, Mo.), 10 ng/ml recombinant human (rh) SCF, 20 ng/ml rh-Tpo (Biovision, Inc., Mountain View, Calif.), and 2 mM lithium chloride (LiCl).\nMononuclear cells (MNCs) were isolated from human umbilical cord blood (UCB) and cultured in STL media (activating both Wnt/β-catenin and PI3K/Akt signaling), STL+StemRegenin1 (SR1), or STL+DNMT inhibitor (DNMTi) and analyzed by flow cytometry. […] 1 μM SR1 (Cellagen Technologies, San Diego, Calif.) or 500 nM of DNMTi (5-Aza-2′-deoxycytidine, A3656, Sigma, St. Louis, Mo.) was added where indicated. DNMTi was prepared fresh in DMSO and added from the start of the culture. 24 hours later, about 75% of media was changed using fresh DNMT inhibitor. 60 hours after culture began, no additional DNMT inhibitor was added during media changes."}, "[3]": {"system": "LSK Flk2^− cells", "assay": "10-day culture of bone marrow MNCs with PI3K inhibitor, CHIR99021 or without insulin, expansion of LSK Flk2^− cells", "assay_type": "cell-based, mouse"}, "[4]": {"system": "lethally irradiated (10 Gy) CD45.1^+ recipient mice", "assay": "Transplantation of cultured sorted LSK Flk2^− cells into lethally irradiated recipients, donor engraftment", "assay_type": "in vivo, mouse", "conditions": "28-day cultures, 1000 re-sorted LSK Flk2^− cells + 2×10^5 competitor cells; peripheral blood 4 weeks post-transplant", "from_the_text": "Cells were harvested from the wells prior to transplantation by pipetting up and down several times before transferring to a fresh tube. Residual was then collected by adding more media and repeating. Cells were washed in DMEM (Invitrogen, Cat. No. 31053) without phenol red and added to the appropriate number of whole bone marrow rescue cells from a congenic donor (for 200,000 rescue cells+1,000 re-sorted LSK Flk2^− cells (FIGS. 3F-H) or the non-adherent product of 10 days culture of 100 LSK Flk2^− cultured cells (FIGS. 3I-K) per mouse as indicated). […]\nRepopulation was measured at 4 weeks post-transplant by collection of peripheral blood, red blood cell lysis, and staining of CD45.1 (recipient) compared to CD45.2 (donor) engraftment using antibodies purchased from eBiosciences (FITC conjugated CD45.2 (Cat. No. 11-0454-85) and PE-Cy5 conjugated CD45.1 (Cat. No. 15-0453-82)). […] Multi-lineage reconstitution was determined by CD3, B220 (for lymphoid) and Gr1, Mac-1 (for myeloid), as described above.\nCells cultured for 28 days in (1) media, (2) media+BpV(pic), (3) media+CHIR99021 and (4) media+CHIR99021 (1 μM)+BpV(pic) (200 nM) were re-sorted for LSK Flk2^− cells. […] At 4 weeks post-transplant, peripheral blood was analyzed for donor (FIG. 3G) and multi-lineage (FIG. 3H) engraftment. […]"}, "[5]": {"system": "LSK Flk2^− cells", "assay": "Ex vivo culture of sorted LSK Flk2^− cells with GSK-3β and PTEN inhibitors, expansion by FACS", "assay_type": "cell-based, mouse", "protocol": "LSK or LSK Flk2^− cells were sorted into 96-well U-bottom tissue culture plates at 100 cells/well with 200 μl media/well. Cells were incubated at 37° C., 5% O2, 5% CO2 (balance N2) for the indicated number of days. One-half total volume of media (see Table 1, below for the base media) was carefully pipetted from the top and replaced with fresh media every other day.\nOne hundred LSK Flk2^− cells were sorted from wild-type (C57Bl/6) mice and cultured in (1) media, (2) media+1 μM CHIR99021 (a GSK-3β inhibitor, a gift from Dr. Sheng Ding), (3) media+200 nM Dipotassium Bis-peroxo(picolinato)oxovanadate (BpV(pic), a PTEN inhibitor, available from Calbiochem, Cat. No. 203705), (4) media+1 μM CHIR99021+200 nM BpV(pic), (5) media+200 nM Shikonin (also a PTEN inhibitor, available from Calbiochem, Cat. No. 565850), and (6) media+200 nM Shikonin+1 μM CHIR99021. (FIGS. 3B-C). Cells were cultured as described above. Cells were examined at 17 days of culture (FIG. 3B, original magnification 100×) and 23 days (FIG. 3C, original magnification 40×).\nLSK Flk2^− cells at 28 days culture in the indicated media conditions were examined (FIG. 3D, original magnification 200×).\nFACS analysis of 28 day LSK Flk2^− cells cultured in media+BpV(pic)+CHIR99021 (FIG. 3E) was performed. Cells were pre-gated on live, lineage negative cells.\nFold expansion of LSK Flk2^− cells after 28 days culture in (1) media, (2) media+BpV(pic), (3) media+CHIR99021, and (4) media+CHIR99021+BpV(pic) were analyzed.\nCells cultured for 9 days in (1) media, (2) media+BpV(pic) (200 nM), (3) media+CHIR99021 (100 nM), and (4) media+CHIR99021 (100 nM)+BpV(pic) (200 nM) were re-sorted for LSK Flk2^− cells, and fold expansion of LSK Flk2^− cells after 9 days culture in the indicated conditions was determined (FIG. 3I).\nFACS analysis was performed on 9 day LSK Flk2^− cells cultured in media+BpV(pic) (200 nM)+CHIR99021 (100 nM) (FIG. 3J). Cells were pre-gated on live, lineage negative cells."}, "[6]": {"system": "LSK Flk2^− cells", "assay": "14-day ex vivo expansion of bone marrow MNCs in ST media with or without GSK3β inhibitor, FACS", "assay_type": "cell-based, mouse", "conditions": "Tpo or SCF alone; data not shown"}},
  "data": [
    {"molecule": "Nc1ncn([C@H]2C[C@H](O)[C@@H](CO)O2)c(=O)n1", "note": "[Decitabine, 5-Aza-2′-deoxycytidine]", "values": [
      {"measurement": "Expansion of functional, primitive human HSCs in serial transplant recipients", "setting": "[1]", "value": "further enhanced"},
      {"measurement": "Human UCB-derived HSC expansion in long-term ex vivo culture", "setting": "[2]", "value": "human UCB-derived HSC expansion is enhanced"}
    ]},
    {"molecule": "Cn1c(=O)n(-c2ccc(C(C)(C)C#N)cc2)c2c3cc(-c4cnc5ccccc5c4)ccc3ncc21", "note": "[NVP-BEZ235]", "values": [
      {"measurement": "Effect on the ability of CHIR99021 to enhance expansion", "setting": "[3]; 10 days culture with 250 nM CHIR99021 plus PI3K inhibitor", "value": "ability of CHIR99021 to enhance expansion was negated by PI3K inhibition"},
      {"measurement": "Expansion of LSK Flk2^− cells", "setting": "[3]; 10 days culture, 250 nM CHIR99021, NVP-BEZ235 at indicated concentrations", "value": "decreased the ability of LSK Flk2^− cells to expand in a dose-dependent manner"}
    ]},
    {"molecule": "CC(C)n1cnc2c(NCCc3ccc(O)cc3)nc(-c3csc4ccccc34)nc21", "note": "[SR1]", "values": [
      {"measurement": "Human UCB-derived HSC expansion in long-term ex vivo culture", "setting": "[2]", "value": "did not enhance overall HSC expansion in long-term cultures"}
    ]},
    {"molecule": "Dipotassium Bis-peroxo(picolinato)oxovanadate [BpV(pic)]", "values": [
      {"measurement": "Mice showing >1% engraftment", "setting": "[4]", "value": "0/10"},
      {"measurement": "Expansion of LSK cells compared to control (photographs)", "setting": "[5]; 17 and 23 days culture, 1 μM CHIR99021, 200 nM BpV(pic)", "value": "greater expansion of LSK cells"},
      {"measurement": "Expansion of LSK Flk2^− cells compared to media without inhibitor", "setting": "[5]; 28 days culture", "value": "significant expansion"}
    ]},
    {"molecule": "SCF: recombinant Stem Cell Factor, cytokine", "values": [
      {"measurement": "HSC expansion with a single cytokine alone", "setting": "[6]", "value": "could not expand HSCs in culture"}
    ]},
    {"molecule": "Tpo: recombinant Thrombopoietin, cytokine", "values": [
      {"measurement": "HSC expansion with a single cytokine alone", "setting": "[6]", "value": "could not expand HSCs in culture"}
    ]},
    {"molecule": "insulin: recombinant human insulin in StemSpan media, a major stimulator of the PI3K/Akt pathway", "values": [
      {"measurement": "Dependence of phenotypic HSC expansion on medium component", "setting": "[3]; ST media with or without insulin, 10 days", "value": "expansion of phenotypic HSCs is dependent on insulin"}
    ]}
  ]
}
